Patent US6803382B2, “Angiogenesis inhibitors and pharmaceutical and cosmetic use thereof” (Galderma Research & Development, S.N.C., priority 2001, dated 2004)

How the values were obtained:
Human MetAP-2 = biological target: T1, Human MetAP-2 (Homo sapiens, UniProt P50579); test: Inhibition of human MetAP-2 (recombinant enzyme, Met-Ala-Ser substrate); format: biochemical; conditions: recombinant MetAP-2, substrate Met-Ala-Ser 1 mM, 37° C., Hepes pH 7.4, 0.5 mM CoCl2
T1 construct: made in house
Method: By way of example, the biological activity of the compounds is evaluated by measuring their inhibitory activity on methionine aminopeptidase MetAP-2 (Li, X., Chang, Y-H. Biochem. Biophys. Res. Comm. 1996, 227, 152).
The biological activity is characterized in this system by determining the concentration of compound required to inhibit 50% of the enzymatic activity (IC50). The test protocol used is described in Example 13 of the present patent application.
a) Measurement of the Inhibition of Human MetAP-2
Recombinant MetAP-2 is obtained and purified according to the method described by Li and Chang (Li, X.; Chang, Y-H. Biochem. Biophys. Res. Comm. 1996, 227, 152).
The tests are carried out in buffer A (Hepes buffer, 10 mM, pH 7.4, 0.5 mM CoCl2 containing 10% glycerol) using the peptide Met-Ala-Ser as substrate (Km=0.7 mM).
a. The enzymatic activity is measured as follows: the substrate solution is added to a suitable amount of enzyme such that the final concentration is 1 mM, and the mixture is incubated at 37° C. for 10-30 minutes. The reaction is quenched by adding 100 mM EDTA solution or by heating in a boiling water bath for two minutes.
b. The N-terminal methionine released is quantified by measuring the absorbance at 450 nm (A450) by incubating for 30-60 minutes at 37° C. with the following coloured reagent: buffer B (Hepes buffer, 10 mM, pH 7.4) (Ben-Bassat A.; Bauer K.: Chang S. Y. et al., J. Bacteriol. 1987, 169, 751-757), containing 70 μg/mL of amino acid oxidase, 10 μg/mL of horseradish peroxidase and 1 mM of o-dianisidine. The activities are expressed as mmol of methionine produced, using the conversion factor of 1 mmol of methionine/mL=8.6A450
Determination of the IC50
The IC50 values are determined by incubating the enzyme and its substrate (using the experimental conditions described above) with increasing concentrations of inhibitor.
The control is 5-methoxy-4-[2-methyl-3-(3-methylbut-2-enyl)oxiranyl]-1-oxaspiro[2.5]octan-6-yl 4-methoxycinnamate described in the publication by Han et al., Bioorganic & Medicinal Chemistry Letters, 2000, 10, 39-43.

[1] = test system: Endothelial Cells Isolated from the Vein of Umbilical Cords; test: Inhibition of endothelial cell proliferation by DNA synthesis reinitiation (b-Fgf, tritiated thymidine); format: cell-based; conditions: b-Fgf-stimulated tritiated thymidine incorporation, 24 h at 37° C., serum free medium, IC50 determined graphically
Method: The anti-angiogenic activity of the compounds according to the invention may also be measured by means of their capacity to inhibit the proliferation of endothelial cells. This activity is determined in Example 13 of the present patent application.
b) Measurement of the Inhibition of the Proliferation in Endothelial Cells Isolated from the Vein of Umbilical Cords (Prepared at the Laboratory) by DNA Synthesis Reinitiation
The cells are seeded in complemented SFM medium (Gibco). When the cells reach the confluence, the growth is stopped by 2 washes in serum free medium and handing-over in serum free medium for 24 h. After trypsination, they are seeded in 48 wells plates: 50.000 cells per well in 500 μl.
The reinitiation of DNA synthesis is performed 6 hours after, in presence of 50 μg/ml b-Fgf by well with increasing amounts of inhibitor to be tested in the serum free medium and containing the tritiated thymidine (b-Fgf is prepared at the laboratory).
The cells are incubated 24 h at 37° C. and the radioactivity is measured with a Wallac counter. Each test is performed in duplicate and the result is the average of the counted number of cpms. The curve showing measured radioactivity function to increasing amount of inhibitors allows to determine graphically the value of IC50.

T1 sequence (P50579 whole entry): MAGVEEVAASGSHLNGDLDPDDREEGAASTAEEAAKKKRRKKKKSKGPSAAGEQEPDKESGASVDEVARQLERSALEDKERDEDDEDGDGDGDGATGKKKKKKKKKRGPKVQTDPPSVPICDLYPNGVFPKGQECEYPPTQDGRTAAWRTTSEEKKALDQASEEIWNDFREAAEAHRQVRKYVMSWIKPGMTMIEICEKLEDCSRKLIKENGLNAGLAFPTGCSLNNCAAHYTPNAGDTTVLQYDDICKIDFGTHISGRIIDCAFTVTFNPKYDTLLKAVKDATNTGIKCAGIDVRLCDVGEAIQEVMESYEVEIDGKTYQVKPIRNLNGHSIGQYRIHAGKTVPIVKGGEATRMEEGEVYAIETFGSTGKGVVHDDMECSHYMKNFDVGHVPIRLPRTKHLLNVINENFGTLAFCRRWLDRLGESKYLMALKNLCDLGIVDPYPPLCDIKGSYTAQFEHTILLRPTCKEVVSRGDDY

Row | IC50 (Human MetAP-2) [nM] | Structure (SMILES) | IC50 [1] [nM] | IC50 ([1]; Endothelial cell) [nM]
1 | 10 | CO[C@@H]1[C@H](OC(=O)/C=C/C=C/C=C/C=C/C(=O)O)CC[C@]2(CO2)[C@H]1[C@@]1(C)O[C@@H]1CC=C(C)C [Fumagillin] | – | –
2 | 35 | COc1ccc(C=CC(=O)OC2CCC3(CO3)C(C3(C)OC3CC=C(C)C)C2OC)cc1 (centres unmarked) [Control, 5-methoxy-4-[2-methyl-3-(3-methylbut-2-enyl)oxiranyl]-1-oxaspiro[2.5]octan-6-yl 4-methoxycinnamate] | 10 | –
3 | 15 | COc1ccc(/C=C/C(=O)O[C@@H]2CC[C@]3(CO3)[C@@H](/C(C)=C/CCC(C)C)[C@@H]2OC)cc1 [Example 2] | – | 1
